Assays:
Type in all cases: in vivo, human
[1] = Phase 1/2 trial safety: adverse events, all-cause mortality
Source text: Safety was monitored throughout the study by physical examinations and clinical laboratory tests, including hematology, chemistry for liver and renal function, urinalysis, pregnancy tests, pharmacokinetics, epi-genetics, buccal swab, and pharmacogenetic markers. Electrocardiograms were obtained at baseline screening and day 1 of each treatment cycle.
The primary endpoint was overall response, which was a composite of complete response (CR), partial response, marrow complete response (mCR), and hematological improvement. Overall response was assessed by local investigators. Secondary endpoints included the individual components of overall response, time to response, duration of response, overall survival, blood transfusion and platelet transfusion independence at weeks 8 and 16, and safety, including the incidence of adverse events, and all-cause early mortality at 30, 60, and 90 days. Exploratory analyses were done to examine the association between baseline characteristics and overall response.
Treatment-emergent adverse events, which are events that first occurred or worsened after the first dose of study drug until 30 days after the last dose or until the start of an alternative anticancer treatment (whichever occurred first), and all-cause 30-day, 60-day, and 90-day cumulative mortality, were summarized descriptively.

[2] = Phase 3 trial pharmacokinetics and exposure response
Experimental: A previously developed Population PK model was applied to calculate model-derived estimates for total cycle exposures (Cmax and AUC) from sparse PK samples collected in Cycle 1 for Compound I-1 and decitabine for use in exposure-response analysis for efficacy and safety. The analyses of exposure-efficacy and exposure-safety relationships were performed separately for patients who received Compound I-1 and patients who received decitabine IV. The following analyses were performed to assess relationships of CR with exposure for each exposure measure: frequencies of CR were tabulated and compared between tertiles of exposure; distributions of exposure were compared for patients with and without CR using box plots; and probability of CR was explored using logistic regression models.

[3] = test system: acute myeloid leukemia (TN and relapsed/refractory AML); experiment: Phase 2 study in AML (TN and r/r): landmark response and survival analyses
Experimental: In a Phase 2 study of 206 AML patients, both treatment naïve (TN), and relapsed/refractory (r/r), patients were treated with Compound I-1 using different doses and schedules. The patients were randomized either to a 5- or 10-day dosing regimen. The patients who were part of the 10-day regimen were given Compound I-1 at 60 mg/m^2/day for 1-4 cycles, then were given the 5-day regimen. The patients who were part of the 5-day regimen were randomized either to the biologically effective dose group (60 mg/m^2 daily) or the highest well tolerated dose group (90 mg/m^2 daily).
Landmark response (CR, CRi, or CRp based on 2003 IWG criteria, grouped together as composite CR or CRc), and overall survival (OS) analyses for patients alive at or beyond month 3 and month 5 (time of planned start of cycle 4 and cycle 6, respectively) were conducted. […] The results in responding and non-responding patients were also compared to see whether survival benefit was restricted to responding patients only.

## Nc1ncn([C@H]2CC(OP(=O)(O)OC[C@H]3O[C@@H](n4cnc5c(=O)[nH]c(N)nc54)CC3O)[C@@H](CO)O2)c(=O)n1 (some centres unmarked) [Compound I-1]
[1]; all treated
  Patients who died from serious adverse events: Seven
[1]; human, in vivo
  Drug-related serious adverse event anemia: 3%
  Drug-related serious adverse event pneumonia: 7%
  Drug-related serious adverse event thrombocytopenia: 3%
[1]; of 102 patients
  30-day all-cause mortality: 1%
  60-day all-cause mortality: 4%
  90-day all-cause mortality: 9%
[1]; pneumonia with 90 mg/m^2 and septic shock with 60 mg/m^2
  Serious adverse events that led to death considered treatment related: two
[2]; Compound I-1 SC vs decitabine IV
  Exposure to active metabolite decitabine: longer exposure to the active metabolite decitabine
[2]; after SC injection
  Time of highest mean plasma Compound I-1 concentration (first collection time point): 1.5 h
[3]; landmark, at least 4 cycles
  Median OS: 13.7 m
[3]; landmark, at least 4 cycles (97 patients)
  CRc rate: 62%
[3]; landmark, at least 4 cycles vs not
  OS HR: 0.53
[3]; landmark, at least 6 cycles
  Median OS: 19.9 m
[3]; landmark, at least 6 cycles (51 patients)
  CRc rate: 82.4%
[3]; landmark, at least 6 cycles vs not
  OS HR: 0.42
[3]; landmark, fewer than 4 cycles
  Median OS: 6.1 m
[3]; landmark, fewer than 4 cycles (64 patients)
  CRc rate: 25%
[3]; landmark, fewer than 6 cycles
  Median OS: 8.8 m
[3]; landmark, fewer than 6 cycles (82 patients)
  CRc rate: 35.4%
[3]; no CRc, at least 4 cycles
  Median OS: 8 m
[3]; no CRc, at least 4 cycles vs not
  OS HR: 0.63
[3]; no CRc, at least 6 cycles
  Median OS: 12.9 m
[3]; no CRc, at least 6 cycles vs not
  OS HR: 0.40
[3]; no CRc, fewer than 4 cycles
  Median OS: 5.4 m
[3]; no CRc, fewer than 6 cycles
  Median OS: 8 m

Source: patent publication US20200352976A1, “HYPOMETHYLATING AGENTS FOR USE IN TREATMENT OF CANCER” (Otsuka Pharmaceutical Co., Ltd, priority 2019, published 2020)
